# Values quoted from earlier work in patent US20220226302A1, “ENHANCEMENT OF CAMP SIGNALING AS A COMBINATION DRUG STRATEGY FOR THE TREATMENT OF DEPRESSION AND RELATED CONDITIONS” (Altos Neuroscience, Inc., priority 2021, published 2022).
# Assays:
# PDE4 [1] = conditions: in vivo
# [2] = in vivo
# depression [3] = conditions: two acute treatment clinical trials, humans
# PDE4 [4] = tested on: PDE4
# depression [5] = conditions: patients with depression, small clinical trials
Structure (SMILES),antidepressant effect (PDE4 [1]),pro-cognitive effect (PDE4 [1]),brain penetration [2],antidepressant-like effects in animals (β3 adrenergic receptor),efficacy in clinical trials for depression (depression [3]),phenotype of treated mice (PDE4 [4]),improvement in depression versus TCA medications (depression [5])
"O=C(Nc1c(Cl)cncc1Cl)c1ccc(OC(F)F)c(OCC2CC2)c1 [Roflumilast, roflumilast]",no evidence of an antidepressant effect,pro-cognitive effects,can also reach the brain,,,,
CCOC(=O)COc1ccc2c(c1)C[C@@H](NC[C@H](O)c1cccc(Cl)c1)CC2 [amibegron],,,brain penetrant,promising antidepressant-like effects in animals,failed to show efficacy in two acute treatment clinical trials,,
COc1ccc(C2CNC(=O)C2)cc1OC1CCCC1 (centres unmarked) [rolipram],,,,,,antidepressant and pro-cognitive phenotypes,"In none of these studies, however, did rolipram produce a greater improvement in depression than the TCA medications"
